Test results published in patent US20260293937A1, “SHRIMP FEED AND METHODS OF USE THEREOF” (Organicin Scientific, Inc., priority 2023, published 2026).
Several values for one entry are separate records, joined by “and”; a condition that tells them apart may be missing. Identical values can stand only once. No end group written: not given here.

Tested on: Vibrio parahaemolyticus (strain 13-028A/3)
Experiment: AHPND immersion challenge, feed-and-survival assay in shrimp
Type: in vivo, Penaeus (Litopenaeus) vannamei
Conditions: for Group Survival: positive control 35%; for % Survival: per tank; for Survivors: per tank of 20 shrimp
Method: This Example describes the materials, methods, and results of a feed-and-survival assay in shrimp treated with a composition of the disclosure, including the bacteriocin Nisin and shrimp feed.
Specific Pathogen Free (SPF) P. vannamei at an average weight of 1 g to 2 g, were obtained from a commercial shrimp producer and reared. A total of 300 shrimp were transferred into 15 90 L glass aquaria, each aquarium stocked with 20 shrimp.
Shrimp feed diets was prepared at X, 10X, and 100X (0.84 mg/g, 8.4 mg/g, and 84 mg/g Nisin, respectively) estimated concentrations of the bacteriocin Nisin. The bacteriocin additive was combined with a 40% protein commercial shrimp premix (Rangen Inc., Buhl, Idaho), carboxymethyl cellulose at a 3% inclusion rate, and up to 40% w/v water. Exemplary components of a typical 35% protein shrimp diet were wheat flour (35%), soybean meal (20%) and fishmeal (25%). The mixture was then cold-extruded through a meat grinder to produce a 3 mm diameter size pellet strand. The resulting feed strands were dried overnight at 40° C. and broken into appropriately-sized pellets. A total of 100 g of each diet was use for this study. In all three experimental groups a minimum of 9.324 g of Nisin was used to produce the respective feed conditions.
The negative and positive control tanks were fed Rangen's commercially pelleted shrimp diet without additive.
The commercially prepared shrimp diet from juvenile Penaeus (Litopenaeus) vannameia was prepared with a bacteriocin additive at three concentrations (0.84 mg/g, 8.4 mg/g, and 84 mg/g Nisin). Experimental shrimp were orally exposed for […] Vibrio parahaemolyticus, an agent which causes Acute Hepatopancreatic Necrosis Disease (AHPND) to determine if the feed additives (provided during and after exposure) would affect survival when compared to the group that was fed an untreated diet.
All tanks were covered to reduce the risk of mortality due to shrimp jumping out. Each group of tanks was outfitted with its own equipment (e.g., nets and buckets). Each tank contained sufficient aeration and was outfitted with a pre-conditioned biological filter. Water quality tests to characterize temperature, nitrite and total ammonia were performed on tanks weekly.
Nine tanks (three per Nisin concentration) were used to house shrimp that were fed the bacteriocin-containing diet, while three tanks were used to house shrimp fed the control diet without additive. In both cases, the shrimp were fed their respective diet, followed by the AHPND challenge. The challenge was provided on 7 days at 5% of body weight per tank. Three additional tanks were used as a negative control for environmental conditions and were used to house shrimp fed the control diet and not challenged with AHPND. Additionally, the negative control tanks were be fed before the AHPND challenged tanks to reduce the risk of cross contamination.
Each tank scheduled for the AHPND challenge was subjected to an immersion challenge. Tryptic Soy Broth +2% (TSB+) sodium chloride was inoculated with a consistently virulent strain of Vibrio parahaemolyticus (strain 13-028A/3), incubated for 18 hours, and added directly into each challenge tank. The bacterial suspension was added into each tank to achieve the bacterial density measured by optical density absorbance (OD600 nm) at approximately […].
Two animals were preserved in Davidson's AFA fixative prior to the start of the study to document the SPF health status of the population by histology.
All tanks were checked twice a day for dead or moribund animals. During the study, any mortalities were removed from the tank and frozen at −20° C. Up to two moribund animals from each diet group, including the positive control tanks, were preserved in Davidson's AFA fixative and processed for routine histology to confirm an AHPND infection (up to 12 P. vannamei processed for histology during the challenge period). […]

Nisin: Nisin (Immucell; 99% pure) in Example 1; bacteriocin Nisin in shrimp feed at 0.84, 8.4 and 84 mg/g in Example 2 (ITSISLCTPGCKTGALMGCNMKTATCHCSIHVSK; cysteine pairing not given here; also: lantibiotic, modifications not placed; UniProt P13068 24-57, looked up)
cumulative survival vs positive control group (0.84 mg/g Nisin in feed): statistically significant difference in cumulative survival | deaths pre-challenge (0.84 mg/g Nisin in feed): 4 | increase in relative survival of AHPND-challenged shrimp (0.84 mg/g Nisin in feed vs positive controls, statistically significant): 265% | survival of AHPND-challenged shrimp (0.84 mg/g Nisin in feed, pre-challenge deaths excluded, positive controls 35%): 100% | survival rate vs positive controls (8.4 mg/g Nisin in feed): significantly higher than the positive controls | deaths (84 mg/g Nisin in feed): not a single death | survival vs positive controls (84 mg/g Nisin in feed): statistically significant as compared to the positive controls | Mortalities by Day (1X (0.84 mg/g Nisin in feed), day 0, per tank): 0 | Mortalities by Day (1X (0.84 mg/g Nisin in feed), day 2, per tank): 0 | Mortalities by Day (1X (0.84 mg/g Nisin in feed), day 3, per tank): 0 | Mortalities by Day (1X (0.84 mg/g Nisin in feed), day 4, per tank): 0 | Mortalities by Day (1X (0.84 mg/g Nisin in feed), day 5, per tank): 0 | Mortalities by Day (1X (0.84 mg/g Nisin in feed), day 6, per tank): 0 | Mortalities by Day (1X (0.84 mg/g Nisin in feed), day 7, per tank): 0 | Mortalities by Day (1X (0.84 mg/g Nisin in feed), day 8, per tank): 0 | Mortalities by Day (1X (0.84 mg/g Nisin in feed), day 9, per tank): 0 | Mortalities by Day (1X (0.84 mg/g Nisin in feed), day 10, per tank): 0 | Mortalities by Day (1X (0.84 mg/g Nisin in feed), day 11, per tank): 0 | Mortalities by Day (1X (0.84 mg/g Nisin in feed), day 12, per tank): 0 | Mortalities by Day (1X (0.84 mg/g Nisin in feed), day 13, per tank): 0 | Mortalities by Day (1X (0.84 mg/g Nisin in feed), day 14, per tank): 0 | Mortalities by Day (1X (0.84 mg/g Nisin in feed), day 15, per tank): 0 | Mortalities by Day (1X (0.84 mg/g Nisin in feed), day 16, per tank): 0 | Group Survival (1X (0.84 mg/g Nisin in feed), overall): 93% | % Survival (1X (0.84 mg/g Nisin in feed)): 95% and 90% | Survivors (1X (0.84 mg/g Nisin in feed)): 19 and 18 | Mortalities by Day (10X (8.4 mg/g Nisin in feed), day 0, per tank): 0 | Mortalities by Day (10X (8.4 mg/g Nisin in feed), day 1, per tank): 0 | Mortalities by Day (10X (8.4 mg/g Nisin in feed), day 2, per tank): 0 | Mortalities by Day (10X (8.4 mg/g Nisin in feed), day 3, per tank): 0 | Mortalities by Day (10X (8.4 mg/g Nisin in feed), day 4, per tank): 0 | Mortalities by Day (10X (8.4 mg/g Nisin in feed), day 5, per tank): 0 | Mortalities by Day (10X (8.4 mg/g Nisin in feed), day 6, per tank): 0 | Mortalities by Day (10X (8.4 mg/g Nisin in feed), day 7, per tank): 0 | Mortalities by Day (10X (8.4 mg/g Nisin in feed), day 13, per tank): 0 | Mortalities by Day (10X (8.4 mg/g Nisin in feed), day 14, per tank): 0 | Mortalities by Day (10X (8.4 mg/g Nisin in feed), day 15, per tank): 0 | Mortalities by Day (10X (8.4 mg/g Nisin in feed), day 16, per tank): 0 | % Survival (10X (8.4 mg/g Nisin in feed)): 85% and 75% and 45% | Survivors (10X (8.4 mg/g Nisin in feed)): 17 and 15 and 9 | Group Survival (10X (8.4 mg/g Nisin in feed)): 68% | Mortalities by Day (100X (84 mg/g Nisin in feed), day 0, per tank): 0 | Mortalities by Day (100X (84 mg/g Nisin in feed), day 1, per tank): 0 | Mortalities by Day (100X (84 mg/g Nisin in feed), day 2, per tank): 0 | Mortalities by Day (100X (84 mg/g Nisin in feed), day 3, per tank): 0 | Mortalities by Day (100X (84 mg/g Nisin in feed), day 4, per tank): 0 | Mortalities by Day (100X (84 mg/g Nisin in feed), day 5, per tank): 0 | Mortalities by Day (100X (84 mg/g Nisin in feed), day 6, per tank): 0 | Mortalities by Day (100X (84 mg/g Nisin in feed), day 7, per tank): 0 | Mortalities by Day (100X (84 mg/g Nisin in feed), day 8, per tank): 0 | Mortalities by Day (100X (84 mg/g Nisin in feed), day 9, per tank): 0 | Mortalities by Day (100X (84 mg/g Nisin in feed), day 10, per tank): 0 | Mortalities by Day (100X (84 mg/g Nisin in feed), day 11, per tank): 0 | Mortalities by Day (100X (84 mg/g Nisin in feed), day 12, per tank): 0 | Mortalities by Day (100X (84 mg/g Nisin in feed), day 13, per tank): 0 | Mortalities by Day (100X (84 mg/g Nisin in feed), day 14, per tank): 0 | Mortalities by Day (100X (84 mg/g Nisin in feed), day 15, per tank): 0 | Mortalities by Day (100X (84 mg/g Nisin in feed), day 16, per tank): 0 | % Survival (100X (84 mg/g Nisin in feed)): 100% | Survivors (100X (84 mg/g Nisin in feed)): 20 | Group Survival (100X (84 mg/g Nisin in feed)): 100% | shrimp survival (Nisin and shrimp feed, dose as low as 0.84 mg/g): significant increase in shrimp survival
